The source of these data is patent publication US9315520B2, “2-amino-6-methyl-4,4a,5,6-tetrahydropyrano[3,4-d][1,3]thiazin-8a(8H)-yl-1,3-thiazol-4-yl amides” (Pfizer Inc., priority 2014, dated 2016).

Structures can show the parent of a compound that is named as a salt.

For orientation: IC50 means the concentration that inhibits the measured activity by half.

The experiment deals with BACE1 (Homo sapiens (Human), UniProt P56817). Briefly: BACE1 Cell-Free Assay (fluorescence polarization). It counts as biochemical. The settings on record: geometric mean of 2-4 determinations unless otherwise indicated (b: ≧5; c: single determination); read-out: BACE1 Cell-free Assay IC50. On the technique in general: Fluorescence polarisation rises when a labelled molecule tumbles more slowly, as on binding a larger partner.
Chain of BACE1 (P56817 46-457): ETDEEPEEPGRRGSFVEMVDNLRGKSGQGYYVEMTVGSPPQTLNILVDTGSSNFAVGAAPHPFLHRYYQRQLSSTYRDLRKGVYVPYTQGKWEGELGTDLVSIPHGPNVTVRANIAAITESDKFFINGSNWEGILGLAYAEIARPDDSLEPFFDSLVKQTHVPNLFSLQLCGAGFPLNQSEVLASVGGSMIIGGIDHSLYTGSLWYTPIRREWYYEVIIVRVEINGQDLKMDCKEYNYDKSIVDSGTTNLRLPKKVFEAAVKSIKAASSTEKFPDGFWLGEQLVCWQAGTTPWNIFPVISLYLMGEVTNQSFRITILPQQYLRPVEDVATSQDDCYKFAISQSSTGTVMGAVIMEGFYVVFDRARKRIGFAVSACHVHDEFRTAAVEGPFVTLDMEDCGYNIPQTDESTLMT
With `CC(C)Cc1cc(C(=O)Nc2csc([C@]34CO[C@@H](C)C[C@H]3CSC(N)=N4)n2)nn1C` [Example 65, N-{2-[(4aR,6S,8aR)-2-amino-6-methyl-4,4a,5,6-tetrahydropyrano[3,4-d][1,3]thiazin-8a(8H)-yl]-1,3-thiazol-4-yl}-1-methyl-5-(2-methylpropyl)-1H-pyrazole-3-carboxamide, trifluoroacetate salt], the IC50 came out at 51000 nM. To `C[C@H]1C[C@H]2CSC(N)=N[C@@]2(c2nc(NC(=O)c3ccncn3)cs2)CO1` [Example 66, N-{2-[(4aR,6S,8aR)-2-amino-6-methyl-4,4a,5,6-tetrahydropyrano[3,4-d][1,3]thiazin-8a(8H)-yl]-1,3-thiazol-4-yl}pyrimidine-4-carboxamide, trifluoroacetate salt] belongs 575 nM; to `Cc1cc(C(=O)Nc2csc([C@]34CO[C@@H](C)C[C@H]3CSC(N)=N4)n2)on1` [Example 67, N-{2-[(4aR,6S,8aR)-2-amino-6-methyl-4,4a,5,6-tetrahydropyrano[3,4-d][1,3]thiazin-8a(8H)-yl]-1,3-thiazol-4-yl}-3-methyl-1,2-oxazole-5-carboxamide, trifluoroacetate salt], 5040 nM. To `Cc1cnc(C(=O)Nc2csc([C@]34CO[C@@H](C)C[C@H]3CSC(N)=N4)n2)cn1` [Example 68, N-{2-[(4aR,6S,8aR)-2-amino-6-methyl-4,4a,5,6-tetrahydropyrano[3,4-d][1,3]thiazin-8a(8H)-yl]-1,3-thiazol-4-yl}-5-methylpyrazine-2-carboxamide, trifluoroacetate salt] belongs 2110 nM; to `CC(C)c1cc(C(=O)Nc2csc([C@]34CO[C@@H](C)C[C@H]3CSC(N)=N4)n2)n(C)n1` [Example 70, N-{2-[(4aR,6S,8aR)-2-amino-6-methyl-4,4a,5,6-tetrahydropyrano[3,4-d][1,3]thiazin-8a(8H)-yl]-1,3-thiazol-4-yl}-1-methyl-3-(propan-2-yl)-1H-pyrazole-5-carboxamide, trifluoroacetate salt], 10400 nM; to `CCc1cc(C(=O)Nc2csc([C@]34CO[C@@H](C)C[C@H]3CSC(N)=N4)n2)on1` [Example 71, N-{2-[(4aR,6S,8aR)-2-amino-6-methyl-4,4a,5,6-tetrahydropyrano[3,4-d][1,3]thiazin-8a(8H)-yl]-1,3-thiazol-4-yl}-3-ethyl-1,2-oxazole-5-carboxamide, trifluoroacetate salt], 9260 nM. Take `CCn1cc(C(=O)Nc2csc([C@]34CO[C@@H](C)C[C@H]3CSC(N)=N4)n2)cn1` [Example 72, N-{2-[(4aR,6S,8aR)-2-amino-6-methyl-4,4a,5,6-tetrahydropyrano[3,4-d][1,3]thiazin-8a(8H)-yl]-1,3-thiazol-4-yl}-1-ethyl-1H-pyrazole-4-carboxamide, trifluoroacetate salt]: the half-maximal inhibitory concentration (IC50) was determined as 7480 nM. On to `Cc1cc(C(=O)Nc2csc([C@]34CO[C@@H](C)C[C@H]3CSC(N)=N4)n2)nn1C` [Example 73, N-{2-[(4aR,6S,8aR)-2-amino-6-methyl-4,4a,5,6-tetrahydropyrano[3,4-d][1,3]thiazin-8a(8H)-yl]-1,3-thiazol-4-yl}-1,5-dimethyl-1H-pyrazole-3-carboxamide, trifluoroacetate salt], for which the IC50 was found to be 12400 nM. Regarding `C[C@H]1C[C@H]2CSC(N)=N[C@@]2(c2nc(NC(=O)c3ncnn3C)cs2)CO1` [Example 74, N-{2-[(4aR,6S,8aR)-2-amino-6-methyl-4,4a,5,6-tetrahydropyrano[3,4-d][1,3]thiazin-8a(8H)-yl]-1,3-thiazol-4-yl}-1-methyl-1H-1,2,4-triazole-5-carboxamide, trifluoroacetate salt], the IC50 is 4560 nM. For the compound `C[C@H]1C[C@H]2CSC(N)=N[C@@]2(c2nc(NC(=O)c3cn(C)cn3)cs2)CO1` [Example 75, N-{2-[(4aR,6S,8aR)-2-amino-6-methyl-4,4a,5,6-tetrahydropyrano[3,4-d][1,3]thiazin-8a(8H)-yl]-1,3-thiazol-4-yl}-1-methyl-1H-imidazole-4-carboxamide, trifluoroacetate salt], the IC50 stood at 18200 nM. As for `C[C@H]1C[C@H]2CSC(N)=N[C@@]2(c2nc(NC(=O)c3cn(C)nn3)cs2)CO1` [Example 76, N-{2-[(4aR,6S,8aR)-2-amino-6-methyl-4,4a,5,6-tetrahydropyrano[3,4-d][1,3]thiazin-8a(8H)-yl]-1,3-thiazol-4-yl}-1-methyl-1H-1,2,3-triazole-4-carboxamide, trifluoroacetate salt], the half-maximal inhibitory concentration (IC50) was 28100 nM. Consider `C[C@H]1C[C@H]2CSC(N)=N[C@@]2(c2nc(NC(=O)c3ccon3)cs2)CO1` [Example 77, N-{2-[(4aR,6S,8aR)-2-amino-6-methyl-4,4a,5,6-tetrahydropyrano[3,4-d][1,3]thiazin-8a(8H)-yl]-1,3-thiazol-4-yl}-1,2-oxazole-3-carboxamide, trifluoroacetate salt], for which the IC50 came to 777 nM. For the compound `C[C@H]1C[C@H]2CSC(N)=N[C@@]2(c2nc(NC(=O)C3CC(F)(F)C3)cs2)CO1` [Example 78, N-{2-[(4aR,6S,8aR)-2-amino-6-methyl-4,4a,5,6-tetrahydropyrano[3,4-d][1,3]thiazin-8a(8H)-yl]-1,3-thiazol-4-yl}-3,3-difluorocyclobutanecarboxamide, trifluoroacetate salt], the half-inhibitory concentration (IC50) was found to be 1490 nM. Take `C[C@H]1C[C@H]2CSC(N)=N[C@@]2(c2nc(NC(=O)c3ncccn3)cs2)CO1` [Example 79, N-{2-[(4aR,6S,8aR)-2-amino-6-methyl-4,4a,5,6-tetrahydropyrano[3,4-d][1,3]thiazin-8a(8H)-yl]-1,3-thiazol-4-yl}pyrimidine-2-carboxamide, trifluoroacetate salt]: the IC50 amounted to 1080 nM. With `C[C@H]1C[C@H]2CSC(N)=N[C@@]2(c2nc(NC(=O)c3cc(Cl)n(C)n3)cs2)CO1` [Example 81, N-{2-[(4aR,6S,8aR)-2-amino-6-methyl-4,4a,5,6-tetrahydropyrano[3,4-d][1,3]thiazin-8a(8H)-yl]-1,3-thiazol-4-yl}-5-chloro-1-methyl-1H-pyrazole-3-carboxamide], the IC50 was 3380 nM. In the case of `C[C@H]1C[C@H]2CSC(N)=N[C@@]2(c2nc(NC(=O)c3cnc(C4CC4)cn3)cs2)CO1` [Example 82, N-{2-[(4aR,6S,8aR)-2-amino-6-methyl-4,4a,5,6-tetrahydropyrano[3,4-d][1,3]thiazin-8a(8H)-yl]-1,3-thiazol-4-yl}-5-cyclopropylpyrazine-2-carboxamide, hydrochloride salt], the IC50 was determined as 1080 nM. In the case of `C[C@H]1C[C@H]2CSC(N)=N[C@@]2(c2nc(NC(=O)c3cnn(C(F)F)c3)cs2)CO1` [Example 83, N-{2-[(4aR,6S,8aR)-2-amino-6-methyl-4,4a,5,6-tetrahydropyrano[3,4-d][1,3]thiazin-8a(8H)-yl]-1,3-thiazol-4-yl}-1-(difluoromethyl)-1H-pyrazole-4-carboxamide], the IC50 was 671 nM. As for `C[C@H]1C[C@H]2CSC(N)=N[C@@]2(c2nc(NC(=O)c3ccnn3C3CC3)cs2)CO1` [Example 85, N-{2-[(4aR,6S,8aR)-2-amino-6-methyl-4,4a,5,6-tetrahydropyrano[3,4-d][1,3]thiazin-8a(8H)-yl]-1,3-thiazol-4-yl}-1-cyclopropyl-1H-pyrazole-5-carboxamide, formate salt], the IC50 is 4240 nM. Regarding `CC(C)c1nc(C(=O)Nc2csc([C@]34CO[C@@H](C)C[C@H]3CSC(N)=N4)n2)co1` [Example 86, N-{2-[(4aR,6S,8aR)-2-amino-6-methyl-4,4a,5,6-tetrahydropyrano[3,4-d][1,3]thiazin-8a(8H)-yl]-1,3-thiazol-4-yl}-2-(propan-2-yl)-1,3-oxazole-4-carboxamide], the IC50 was 16200 nM. Regarding `C[C@H]1C[C@H]2CSC(N)=N[C@@]2(c2nc(NC(=O)c3ccn(CC(F)F)n3)cs2)CO1` [Example 87, N-{2-[(4aR,6S,8aR)-2-amino-6-methyl-4,4a,5,6-tetrahydropyrano[3,4-d][1,3]thiazin-8a(8H)-yl]-1,3-thiazol-4-yl}-1-(2,2-difluoroethyl)-1H-pyrazole-3-carboxamide], the IC50 was found to be 398 nM.

As to `COCCn1ccc(C(=O)Nc2csc([C@]34CO[C@@H](C)C[C@H]3CSC(N)=N4)n2)n1` [Example 88, N-{2-[(4aR,6S,8aR)-2-amino-6-methyl-4,4a,5,6-tetrahydropyrano[3,4-d][1,3]thiazin-8a(8H)-yl]-1,3-thiazol-4-yl}-1-(2-methoxyethyl)-1H-pyrazole-3-carboxamide], the IC50 was 418 nM. To `C#CCn1ccc(C(=O)Nc2csc([C@]34CO[C@@H](C)C[C@H]3CSC(N)=N4)n2)n1` [Example 89, N-{2-[(4aR,6S,8aR)-2-amino-6-methyl-4,4a,5,6-tetrahydropyrano[3,4-d][1,3]thiazin-8a(8H)-yl]-1,3-thiazol-4-yl}-1-(prop-2-yn-1-yl)-1H-pyrazole-3-carboxamide] belongs 17 nM; to `COCc1nc(C(=O)Nc2csc([C@]34CO[C@@H](C)C[C@H]3CSC(N)=N4)n2)co1` [Example 90, N-{2-[(4aR,6S,8aR)-2-amino-6-methyl-4,4a,5,6-tetrahydropyrano[3,4-d][1,3]thiazin-8a(8H)-yl]-1,3-thiazol-4-yl}-2-(methoxymethyl)-1,3-oxazole-4-carboxamide], 175 nM.

Consider `C[C@H]1C[C@H]2CSC(N)=N[C@@]2(c2nc(NC(=O)c3coc(CC(F)(F)F)n3)cs2)CO1` [Example 91, N-{2-[(4aR,6S,8aR)-2-amino-6-methyl-4,4a,5,6-tetrahydropyrano[3,4-d][1,3]thiazin-8a(8H)-yl]-1,3-thiazol-4-yl}-2-(2,2,2-trifluoroethyl)-1,3-oxazole-4-carboxamide], for which the IC50 worked out at 215 nM. Take `C[C@H]1C[C@H]2CSC(N)=N[C@@]2(c2nc(NC(=O)C3CCC3)cs2)CO1` [Example 93, N-{2-[(4aR,6S,8aR)-2-amino-6-methyl-4,4a,5,6-tetrahydropyrano[3,4-d][1,3]thiazin-8a(8H)-yl]-1,3-thiazol-4-yl}cyclobutanecarboxamide]: the IC50 was found to be 376 nM.
